Experimental data from patent publication US4490370A, “Naphthylglycyl cephalosporin derivatives” (priority 1983, dated 1984).
Converted amounts (≈) assume the structure as drawn. Structures can show the parent of a compound that is named as a salt. Where two headings read alike, the source gives them in different places.

Assays:
Assay type in all cases: cell-based
Staph. epi = assay: Agar dilution MIC, Staph. epi; conditions: Table I
From the text: (§1) The following Tables present typical minimum inhibitory concentrations (MIC's) in μg/ml for the compounds when evaluated against the indicated microorganisms.

Staph. aureus = assay: Agar dilution MIC, Staph. aureus; conditions: Table I
From the text: as §1

Strep. A = assay: Agar dilution MIC, Strep. A; conditions: Table I, strain C203
From the text: (§2) A typical and preferred compound provided by this invention is 7-(2-naphthylglycylamido)-3-methyl-3-cephem-4-carboxylic acid, the compound of Example 3. The antibacterial activity of this compound and several others of the invention has been determined in standard in vitro agar dilution assays against a variety of gram positive microorganisms. The following Tables present typical minimum inhibitory concentrations (MIC's) in μg/ml for the compounds when evaluated against the indicated microorganisms. MIC's for several known compounds are also presented for comparison.

Strep. PN = assay: Agar dilution MIC, Strep. PN; conditions: Table I, strain PARK
From the text: as §1

H. influ. = assay: Agar dilution MIC, H. influenza; conditions: Table I
From the text: as §1

Klebsiella = assay: Agar dilution MIC, Klebsiella; conditions: Table I, strain X26
From the text: as §2

Row | SMILES | MIC (Staph. epi; strain 222, read-out: MIC) | MIC (Staph. epi; strain EPI1, read-out: MIC) | MIC (Staph. aureus; Staphylococcus aureus, strain S13E) | MIC (Staph. aureus; Staphylococcus aureus, strain V41, read-out: MIC) | MIC (Staph. aureus; Staphylococcus aureus, strain X1.1, read-out: MIC) | MIC (Strep. A; read-out: MIC) | MIC (Strep. PN; read-out: MIC) | MIC (H. influ.; strain 251, read-out: MIC) | MIC (Klebsiella; Klebsiella, read-out: MIC) | MIC (H. influ.; strain BRUN, read-out: MIC) | MIC (Staph. epi; strain EPI1) | MIC (Staph. aureus; strain S13E) | MIC (Staph. aureus; strain V41) | MIC (Strep. A) | MIC (Strep. PN) | MIC (H. influ.; strain 251) | MIC (H. influ.; strain BRUN) | MIC (Klebsiella) | MIC (Staph. epi; strain 222) | MIC (Staph. aureus; strain X1.1)
1 | COC1=C(C(=O)O)N2C(=O)C(NC(=O)C(N)c3ccc4ccccc4c3)C2SC1 (racemic) [Example 6, 7-(2-Naphthylglycylamido)-3-methoxy-3-cephem-4-carboxylic acid trifluoroacetate] | 2 µg/mL | 8 µg/mL | 32 µg/mL | 32 µg/mL | 1 µg/mL | 0.125 µg/mL | > 138 µg/mL | 32 µg/mL | 8 µg/mL |  |  |  |  |  |  |  |  |  |  | 
2 | CC1(C)S[C@@H]2[C@H](NC(=O)[C@H](N)c3ccccc3)C(=O)N2[C@H]1C(=O)O [Ampicillin, reference compound] |  | 8 µg/mL (≈ 22.9 µM) |  |  |  | 0.03 µg/mL (≈ 0.0859 µM) | 0.03 µg/mL (≈ 0.0859 µM) | 16 µg/mL (≈ 45.8 µM) | 16 µg/mL (≈ 45.8 µM) | 0.5 µg/mL (≈ 1.43 µM) |  |  |  |  |  |  |  |  |  | 
3 | N[C@@H](C(=O)N[C@@H]1C(=O)N2C(C(=O)O)=C(Cl)CS[C@H]12)c1ccc2ccccc2c1 [Ex. 5A, D-7-(2-naphthylglycylamido)-3-chloro-3-cephem-4-carboxylic acid] |  |  |  |  |  |  |  |  |  |  | 2 µg/mL (≈ 4.79 µM) | 16 µg/mL (≈ 38.3 µM) | 16 µg/mL (≈ 38.3 µM) | 0.125 µg/mL (≈ 0.299 µM) | 0.125 µg/mL (≈ 0.299 µM) | 2 µg/mL (≈ 4.79 µM) | 4 µg/mL (≈ 9.57 µM) | 2 µg/mL (≈ 4.79 µM) |  | 
4 | N[C@H](C(=O)N[C@@H]1C(=O)N2C(C(=O)O)=C(Cl)CS[C@H]12)c1ccc2ccccc2c1 [Ex. 5B, L-7-(2-naphthylglycylamido)-3-chloro-3-cephem-4-carboxylic acid] |  |  |  |  |  |  |  |  |  |  | 32 µg/mL (≈ 76.6 µM) |  |  | 4 µg/mL (≈ 9.57 µM) |  | 16 µg/mL (≈ 38.3 µM) |  | 2 µg/mL (≈ 4.79 µM) | 4 µg/mL (≈ 9.57 µM) | 8 µg/mL (≈ 19.1 µM)
